Where two headings read alike, the source gives them in different places.
What was measured:
Assay type in all cases: cell-based, human
A2780S = assay: Inhibition of cell growth (cells counted on Coulter Counter after six days)
Method: The experiment was conducted in triplicate in the manner described with respect to Table I.
A2780 cells were well-plated (35 mm disnes) and 24 hours later the cells were treated with cisplatin for one hour, washed out and then treated with 6 concentrations of from 1 μM to 100 μM increased in equal increments of a nucleoside analog in saline. Cells were then washed and incubated for six days. The cells were counted on a Coulter Counter and the experiment was done in triplicate.
(§1) Table VI includes EC50 data further exemplifying the invention. The data reported by Table VI was obtained by substantially the same procedure as that described with respect to Table III. In Table VI, “(C)” indicates continuous exposure, “(1 h)” and “(2 h)” indicate exposure for 1 hour and 2 hours; “HU” indicates hydroxyurea.

A2780DDP [1] = assay: as above; conditions: for Ratio (degree of resistance or cross-resistance): A2780DDP vs A2780S EC50
Method: The experiment was conducted in triplicate in the manner described with respect to Table I. […]
as §1

A2780DDP [2] = assay: Dual labeled (14C/3H) DNA synthesis and degradation in response to cisplatin; incorporation of labelled nucleoside analogs; conditions: A2780DDP
From the text: A dual labeled (^14C/^3H) experiment was designed to measure simultaneously DNA synthesis and degradation in response to cisplatin.

HCF-7 DDP = assay: Inhibition of cell growth, Table VI; conditions: HCF-7 DDP
Method: as §1

K562S = assay: Inhibition of cell growth, Table VI
Method: as §1

K562-araC = assay: Inhibition of cell growth, Table VI; conditions: K562-araC
Method: as §1

K562-VP16 = assay: Inhibition of cell growth, Table VI
HCF7S = assay: Inhibition of cell growth, Table VI
HCT8S = assay: Inhibition of cell growth (cells counted on Coulter Counter after six days); conditions: read-out: EC50
Method: as §1

HCT8DDP = assay: as above; conditions: HCT8-DDP, read-out: EC50
Method: as §1

K562-DDP = assay: Inhibition of cell growth, Table VI; conditions: for EC50: K562-DDP
[3] = continuous exposure, proliferation during 6 days, mean + SD, read-out: EC50 A2780S
[4] = continuous exposure, proliferation during 6 days, mean + SD, read-out: EC50 A2780DDP
[5] = 0 min after cisplatin (20 μM) treatment
[6] = 45 min after cisplatin (20 μM) treatment
[7] = 90 min after cisplatin (20 μM) treatment
[8] = 180 min after cisplatin (20 μM) treatment
[9] = A2780S, (C) continuous exposure, read-out: EC50
[10] = A2780 DDP, (C) continuous exposure, read-out: EC50
[11] = Homo sapiens, (C) continuous exposure

Row | SMILES | EC50 (A2780S; [3]) | Ratio (degree of resistance or cross-resistance) (A2780DDP [1]; continuous exposure) | EC50 (A2780DDP [1]; [4]) | Incorporation of labelled nucleoside analog into macromolecules (A2780DDP [2]; [5]) | Incorporation of labelled nucleoside analog into macromolecules (A2780DDP [2]; [6]) | Incorporation of labelled nucleoside analog into macromolecules (A2780DDP [2]; [7]) | Incorporation of labelled nucleoside analog into macromolecules (A2780DDP [2]; [8]) | EC50 (HCF-7 DDP; (C) continuous exposure) | EC50 (K562S; (C) continuous exposure) | EC50 (K562-araC; (C) continuous exposure) | EC50 (K562-VP16; (C) continuous exposure) | EC50 (A2780S; [9]) | EC50 (A2780DDP [1]; [10]) | EC50 (HCF7S; (C) continuous exposure) | EC50 (HCT8S; (C) continuous exposure) | EC50 (HCT8DDP; (C) continuous exposure) | EC50 (K562-DDP; (C) continuous exposure) | other results
1 | Nc1ncnc2c1ncn2[C@@H]1O[C@H](CO)[C@@H](O)[C@@H]1O [araA] | 16.2 µM | +4.0 | 64.7 µM | 19.01 | 24.21 | 27.91 | 32.70 |  |  |  |  |  |  |  |  |  |  | 
2 | Nc1ccn([C@@H]2O[C@H](CO)[C@@H](O)[C@@H]2O)c(=O)n1 [araC] | 0.1 µM | +45.0 | 4.5 µM |  |  |  |  |  |  |  |  |  |  |  |  |  |  | EC50 (HCF-7 DDP; (2h) exposure): 5 µM; EC50 (K562S; (2h) exposure): 0.3 µM; EC50 (K562-araC; (2h) exposure): 8 µM; EC50 (K562-VP16; (2h) exposure): 8 µM; EC50 (A2780S; A2780S, (2h) exposure, read-out: EC50): 0.1 µM; EC50 (A2780DDP [1]; A2780 DDP, (2h) exposure, read-out: EC50): 4.5 µM; EC50 (HCF7S; (2h) exposure): 2.5 µM; EC50 (HCT8S; (2h) exposure): 29 µM; EC50 (HCT8DDP; (2h) exposure): 79 µM; EC50 (K562-DDP; (2h) exposure): 0.3 µM
3 | Nc1ncnc2c1ncn2[C@H]1CC[C@@H](CO)O1 [ddA, 2′3′-dideoxyadenosine] |  |  |  |  |  |  |  | 30 µM | 37.5 µM | 36 µM | 35 µM | 10 µM | 25 µM | 30 µM | 33 µM | 36 µM | 28 µM | 
4 | Nc1ccn([C@H]2CC[C@@H](CO)O2)c(=O)n1 [ddC, dideoxycytidine] |  | +2.6 |  | 15.09 | 36.94 | 42.61 | 45.93 |  |  |  |  |  |  |  |  |  |  | EC50 (HCF-7 DDP; [11]): > 100 µM; EC50 (K562S; [11]): 25 µM; EC50 (K562-araC; [11]): > 300 µM; EC50 (K562-VP16; [11]): 100 µM; EC50 (A2780S; Homo sapiens, A2780S, 144 h, continuous exposure, proliferation during 6 days, mean + SD, read-out: EC50 A2780S): 1.5 µM; EC50 (A2780S; Homo sapiens, A2780S, (C) continuous exposure, read-out: EC50): 1.5 µM; EC50 (A2780DDP [1]; Homo sapiens, 144 h, continuous exposure, proliferation during 6 days, mean + SD, read-out: EC50 A2780DDP): 4 µM; EC50 (A2780DDP [1]; Homo sapiens, A2780 DDP, (C) continuous exposure, read-out: EC50): 4 µM; EC50 (HCF7S; [11]): 2.5 µM; EC50 (HCT8S; [11]): 2 µM; EC50 (HCT8DDP; [11]): 23 µM; EC50 (K562-DDP; [11]): 5 µM; factor more sensitive, cispt resistant vs sensitive K562 cells (K562-DDP; K562 human leukemia cells): 5
5 | Nc1nc2c(ncn2[C@H]2CC[C@@H](CO)O2)c(=O)[nH]1 [ddG, 2′,3′-dideoxyquanosene] |  |  |  |  |  |  |  | 180 µM | 160 µM | 150 µM | 170 µM | 60 µM | 110 µM | 210 µM | 35 µM | 45 µM | 190 µM | 
6 | Cc1cn([C@H]2CC[C@@H](CO)O2)c(=O)[nH]c1=O [ddT, 2′,3′-dideoxythymidine] |  |  |  |  |  |  |  | > 500 µM | > 400 µM | > 400 µM | 200 µM | 110 µM | > 750 µM | > 500 µM | > 150 µM | > 500 µM | > 400 µM | 

Reference: patent US20020055470A1, “Circumvention of human tumor drug resistance” (CITY OF HOPE, priority 1987, published 2002)
